Measurements: PubChem BioAssay AID493148 (Sanford-Burnham Center for Chemical Genomics, 2011)
The source made the active and inactive calls. No rule for the calls is given here.

Target: Alkaline phosphatase, tissue-nonspecific isozyme (Homo sapiens) (UniProt P05186)
Experiment: inhibition of tissue-nonspecific alkaline phosphatase – biochemical, selectivity assay for mouse IAP inhibitor project, SAR follow-up (AID 493148)
Settings: purified enzyme, CDP-Star luminescence, 30 min

Alkaline phosphatase, tissue-nonspecific isozyme (Homo sapiens), sequence (P05186 whole entry, looked up): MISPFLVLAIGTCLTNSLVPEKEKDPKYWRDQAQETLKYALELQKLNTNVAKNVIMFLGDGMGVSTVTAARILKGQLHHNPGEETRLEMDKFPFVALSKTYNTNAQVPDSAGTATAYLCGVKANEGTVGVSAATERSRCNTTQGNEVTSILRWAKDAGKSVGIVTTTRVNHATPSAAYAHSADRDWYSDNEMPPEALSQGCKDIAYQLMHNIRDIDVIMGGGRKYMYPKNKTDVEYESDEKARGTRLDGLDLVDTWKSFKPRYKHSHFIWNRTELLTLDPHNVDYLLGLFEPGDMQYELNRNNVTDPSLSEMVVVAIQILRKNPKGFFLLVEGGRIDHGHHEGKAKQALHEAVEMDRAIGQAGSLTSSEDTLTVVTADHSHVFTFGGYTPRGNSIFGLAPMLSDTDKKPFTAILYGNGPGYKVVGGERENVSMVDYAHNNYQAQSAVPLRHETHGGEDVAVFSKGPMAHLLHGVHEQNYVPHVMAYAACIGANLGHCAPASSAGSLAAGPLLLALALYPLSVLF

SMILES | IC50
COCc1ccc(CN2CCC(C(=O)Nc3cccc(-c4cccc(Cl)c4)c3)CC2)o1 | > 100 µM (inactive)
S=C(NCCC(c1ccccc1)c1ccccc1)Nc1ccc(Cl)cc1Cl | > 100 µM (inactive)
Cc1ccc(CN2CCC(C(=O)Nc3cccc(-c4cccc(F)c4)c3)CC2)o1 | > 100 µM (inactive)
COc1ccc(Cl)cc1NC(=S)NCCC(c1ccccc1)c1ccccc1 | > 100 µM (inactive)
CCc1ccccc1Nc1nc(-c2ccc(O)c(O)c2)cs1 | 11.4 µM
S=C(NCCC(c1ccccc1)c1ccccc1)Nc1ccc(Cl)c(Cl)c1 | > 100 µM (inactive)
COc1ccc(Cl)cc1Nc1nc(-c2ccc(O)c(O)c2)cs1 | > 100 µM (inactive)
CC(C)n1cc(CN2CCC(C(=O)Nc3cccc(-c4cccc(Cl)c4)c3)CC2)cn1 | > 100 µM (inactive)
CCN1CCN(S(=O)(=O)c2ccc3[nH]c(=O)oc3c2)CC1 | > 100 µM (inactive)
Cc1cc(C)cc(NC(=S)NCCC(c2ccccc2)c2ccccc2)c1 | > 100 µM (inactive)
COc1ccc(C(=O)CSc2n[nH]c(-c3ccccc3)n2)cc1OC | 34.4 µM
COc1cccc(-c2cccc(NC(=O)C3CCN(Cc4ccc(C)o4)CC3)c2)c1 | > 100 µM (inactive)
CCn1cc(CN2CCC(C(=O)Nc3cccc(-c4cccc(Cl)c4)c3)CC2)cn1 | > 100 µM (inactive)
Cc1ccc(NC(=O)CCNS(=O)(=O)c2ccc3[nH]c(=O)oc3c2)cc1C | > 100 µM (inactive)
CCn1ncc(CN2CCC(C(=O)Nc3cccc(-c4cccc(F)c4)c3)CC2)c1C | > 100 µM (inactive)
CC(C)n1cc(CN2CCC(C(=O)Nc3cccc(-c4cccc(F)c4)c3)CC2)cn1 | > 100 µM (inactive)
S=C(NCCC(c1ccccc1)c1ccccc1)Nc1ccc(Cl)cc1 | > 100 µM (inactive)
O=C(CN1C(=O)/C(=C/c2ccco2)SC1=S)Nc1ccc(C(=O)O)cc1 | > 100 µM (inactive)
Cc1c(Cl)cccc1Nc1nc(-c2ccc(O)c(O)c2)cs1 | > 100 µM (inactive)
Cc1cccc(NC(=S)NCCC(c2ccccc2)c2ccccc2)c1C | > 100 µM (inactive)
C=CCn1cc(CN2CCC(C(=O)Nc3cccc(-c4cccc(F)c4)c3)CC2)c(C)n1 | > 100 µM (inactive)
C=CCn1cc(CN2CCC(C(=O)Nc3cccc(-c4cccc(Cl)c4)c3)CC2)c(C)n1 | > 100 µM (inactive)
FC(F)(F)c1cccc(NC(=S)NCCC(c2ccccc2)c2ccccc2)c1 | > 100 µM (inactive)

SMILES | IC50
S=C(NCCC(c1ccccc1)c1ccccc1)Nc1ccccc1 | > 100 µM (inactive)
Cc1c(CN2CCC(C(=O)Nc3cccc(-c4cccc(Cl)c4)c3)CC2)cnn1C | > 100 µM (inactive)
CCn1c(SCC(=O)c2ccc(O)c(O)c2)nnc1-c1ccccc1OC | > 100 µM (inactive)
O=C(Nc1cccc(-c2cccc(Cl)c2)c1)C1CCN(C2CCC2)CC1 | > 100 µM (inactive)
NS(=O)(=O)c1ccc(NC(=S)NCCC(c2ccccc2)c2ccccc2)cc1 | > 100 µM (inactive)
COc1ccc(NC(=S)NCCC(c2ccccc2)c2ccccc2)cc1 | > 100 µM (inactive)
Cn1cc(CN2CCC(C(=O)Nc3cccc(-c4cccc(Cl)c4)c3)CC2)cn1 | > 100 µM (inactive)
O=C(CN1C(=O)/C(=C/c2ccco2)SC1=S)Nc1cccc(C(=O)O)c1 | > 100 µM (inactive)
Cc1ccc(C)c(NC(=S)NCCC(c2ccccc2)c2ccccc2)c1 | > 100 µM (inactive)
CCn1cc(CN2CCC(C(=O)Nc3cccc(-c4cccc(OC)c4)c3)CC2)c(C)n1 | > 100 µM (inactive)
CCn1nc(C)c(CN2CCC(C(=O)Nc3cccc(-c4cccc(Cl)c4)c3)CC2)c1C | > 100 µM (inactive)
COc1cccc(-c2cccc(NC(=O)C3CCN(Cc4ccc(CO)o4)CC3)c2)c1 | > 100 µM (inactive)
Cn1cc(CN2CCC(C(=O)Nc3cccc(-c4cccc(F)c4)c3)CC2)cn1 | > 100 µM (inactive)
CCn1nc(C)c(CN2CCC(C(=O)Nc3cccc(-c4cccc(F)c4)c3)CC2)c1C | > 100 µM (inactive)
CC(C)c1ccccc1NC(=S)NCCC(c1ccccc1)c1ccccc1 | > 100 µM (inactive)
CN1CCC(=NNC(=O)c2cc(O)c(O)c(O)c2)CC1 | > 100 µM (inactive)
COC(=O)c1cc(NC(=S)NCCC(c2ccccc2)c2ccccc2)cc(C(=O)OC)c1 | > 100 µM (inactive)
Cc1ccc(NC(=S)NCCC(c2ccccc2)c2ccccc2)cc1 | > 100 µM (inactive)
COc1cc([N+](=O)[O-])ccc1NC(=S)NCCC(c1ccccc1)c1ccccc1 | > 100 µM (inactive)
Cc1c(Cl)cccc1NC(=S)NCCC(c1ccccc1)c1ccccc1 | > 100 µM (inactive)
CC(C)N1CCC(=NNC(=O)c2cc(O)c(O)c(O)c2)CC1 | > 100 µM (inactive)
Cc1cc(Cl)ccc1NC(=S)NCCC(c1ccccc1)c1ccccc1 | > 100 µM (inactive)
COc1cc(NC(=S)NCCC(c2ccccc2)c2ccccc2)cc(OC)c1 | > 100 µM (inactive)

SMILES | IC50
S=C(NCCC(c1ccccc1)c1ccccc1)Nc1ccc(Nc2ccccc2)cc1 | > 100 µM (inactive)
CCOC(=O)c1ccc(NC(=S)NCCC(c2ccccc2)c2ccccc2)cc1 | > 100 µM (inactive)
O=C(Nc1cccc(-c2cccc(F)c2)c1)C1CCN(Cc2ccc(CO)o2)CC1 | > 100 µM (inactive)
O=[N+]([O-])c1ccc(NC(=S)NCCC(c2ccccc2)c2ccccc2)cc1 | > 100 µM (inactive)
Cc1cc(NC(=O)CCNS(=O)(=O)c2ccc3[nH]c(=O)oc3c2)ccc1Br | > 100 µM (inactive)
Cc1nn(C(C)C)c(C)c1CN1CCC(C(=O)Nc2cccc(-c3cccc(F)c3)c2)CC1 | > 100 µM (inactive)
COc1cccc(NC(=S)NCCC(c2ccccc2)c2ccccc2)c1 | > 100 µM (inactive)
S=C(NCCC(c1ccccc1)c1ccccc1)Nc1cccc(Cl)c1 | > 100 µM (inactive)
CC1(c2ccccc2)CC(C)(C)N(C(=S)Nc2ccccc2)c2ccccc21 (stereo not drawn) | > 100 µM (inactive)
CCn1cc(CN2CCC(C(=O)Nc3cccc(-c4cccc(F)c4)c3)CC2)cn1 | > 100 µM (inactive)
O=S(=O)(Nc1ncccn1)c1ccc(NC(=S)NCCC(c2ccccc2)c2ccccc2)cc1 | > 100 µM (inactive)
Fc1ccccc1NC(=S)NCCC(c1ccccc1)c1ccccc1 | > 100 µM (inactive)
Fc1ccc(NC(=S)NCCC(c2ccccc2)c2ccccc2)cc1Cl | > 100 µM (inactive)
Oc1ccc(-c2csc(Nc3cccc4ccccc34)n2)cc1O | 6.4 µM
Cc1ccc(NC(=S)NCCC(c2ccccc2)c2ccccc2)cc1C | > 100 µM (inactive)
O=C(Nc1cccc(-c2cccc(Cl)c2)c1)C1CCN(Cc2ccc(CO)o2)CC1 | > 100 µM (inactive)
CCn1cc(CN2CCC(C(=O)Nc3cccc(-c4cccc(OC)c4)c3)CC2)cn1 | > 100 µM (inactive)
CN(C)S(=O)(=O)c1cccc(NC(=S)NCCC(c2ccccc2)c2ccccc2)c1 | > 100 µM (inactive)
Cc1cc(=O)oc2cc(NC(=S)NCCC(c3ccccc3)c3ccccc3)ccc12 | > 100 µM (inactive)
O=C(CN1C(=O)/C(=C\c2ccco2)SC1=S)Nc1ccccc1C(=O)O | > 100 µM (inactive)
Cc1nn(C)c(Cl)c1CN1CCC(C(=O)Nc2cccc(-c3cccc(F)c3)c2)CC1 | > 100 µM (inactive)
CCCn1ncc(CN2CCC(C(=O)Nc3cccc(-c4cccc(F)c4)c3)CC2)c1C | > 100 µM (inactive)
